Where “and” joins values, the source holds several entries; their conditions need not be identical. Identical values can stand only once.
Assays:
[1] = molecular target: T1, PaPepA (Pseudomonas aeruginosa, UniProt Q02RY8); test: Metal activation of Leu-pNA cleavage (metal varied, Leu-pNA fixed); assay type: biochemical; set-up: GG stays after cleavage) (N); made in house; host or cells: E. coli BL21(DE3); details: with 2 mM Leu-pNA
Method: A BMG Labtech POLARstar Omega plate reader was used for activity assays and kinetic studies involving amino acids conjugated to para-nitroaniline (pNA) (Sigma) or peptides as substrates. Assays were carried out at 25 °C in clear half-area 96-well plates (Greiner Bio-One). […] For kinetic assays investigating Leu-AMC as a substrate, a SpectraMax M2E was used. Reactions were carried out using black half-area 96-well plates with clear bottoms (Greiner Bio-One). Product formation was assessed by monitoring changes in fluorescence, with the excitation wavelength set at 341 nm and emission at 441 nm. The cutoff was 420 nm. PMT gain was set to medium, with six flashes per read. […] Calibration curves of pNA concentration vs absorbance and AMC vs fluorescence were constructed, and initial rate values were divided by the slope of these calibration curves to reveal the rate of product formation over time (Table S2).
For all assays excluding pH dependence curves, buffer conditions were as follows: 100 mM HEPES, 50 mM KCl, and pH 8.0. For assays carried out under pseudo-first-order conditions, one reaction component was fixed and in excess, while the other was varied. […] For assays involving variation of aa-pNA or aa-AMC, MnCl2 was added to a final concentration of 3 mM.

[2] = molecular target: T1, PaPepA; test: Solvent kinetic isotope effects; assay type: biochemical; set-up: GG stays after cleavage) (N); made in house; host or cells: E. coli BL21(DE3); details: H2O vs 80% D2O, metal varied, Leu-pNA fixed, pH 8.0
Method: SKIEs were determined by plotting saturation curves in H2O or 80% D2O. […] Differences between reaction rates under initial velocity conditions were measured varying the concentration of either Leu-pNA or Mn^2+, while keeping the other component constant and in excess (at least 5× the value of KM or KACT, Scheme 2). Experiments were performed at pH 8.0 (100 mM HEPES, with 50 mM KCl). For proton inventory studies, D2O was varied from 0 to 80% in 10% increments. All proton inventory studies were carried out on the same day by using the same enzyme stock.
When calculating SKIEs, kcat and KM were obtained from the Michaelis–Menten curves in H2O. The 80% D2O Michaelis–Menten curve was fit to the following equation: [drawing 2] 2 where Fi is the fraction D2O, and EV/K and EV are the isotope effects −1 on kcat/KM and kcat, respectively.

[3] = molecular target: T1, PaPepA; test: Isothermal titration calorimetry of metal binding; set-up: GG stays after cleavage) (N); made in house; host or cells: E. coli BL21(DE3)
Method: Purified PaPepA (100 μM) was buffer exchanged into ITC buffer (50 mM Tris, 140 mM NaCl, pH 7.4) using a Millipore Amicon Ultra-4 centrifugal unit (10 kDa MWCO). The protein was syringe-filtered through a […] and diluted to 50 μM. 3 mL solutions of filtered metal were also prepared. A 400 μM solution of MnCl2 and a 1 mM solution of MgCl2 were prepared by dilution of 1 M metal chloride stocks (Sigma) into ITC buffer.
Buffer, protein, and metal solutions were degassed. Following extensive washes with ITC buffer, the protein was loaded into the cell (volume 1.43 mL) of a VP-ITC (MicroCal) and MnCl2 or MgCl2 solution was loaded into the syringe (total volume 300 μL). Experiments were carried out using the following settings: temperature = 25 °C, duration = 4 s, spacing = 210 s, filter period = 2 s, for 35 injections (one injection of 2 μL followed by 34 injections of 8 μL). Data were analyzed using Origin(Pro), Version 2021 (OriginLab Corporation, Northampton, Massachusetts, USA), and MicroCal PEAQ-ITC analysis software (Malvern).

[4] = molecular target: T1, PaPepA; test: Zn2+ inhibition in the pNA assay with Mn2+; assay type: biochemical; set-up: GG stays after cleavage) (N); made in house; host or cells: E. coli BL21(DE3)
Method: Figure 3 PaPepA metal binding and catalysis. (A) PaPepA activity with different divalent metals assessed through kcat/KACT. Leu-pNA was present in all assays at a concentration of 2 mM. (B) The effects of Zn^2+ and Mn^2+ preincubation, followed by extensive dialysis in metal-free buffer and subsequent addition of excess Mn^2+. (C) Michaelis–Menten plots showing inhibition of PaPepA by Zn^2+. Data were fit to a noncompetitive mixed model of inhibition. (D) Representative plots of the ITC data for titrations of MnCl2 (left) and MgCl2 (right) with PaPepA. The top panel depicts raw data, and the bottom panel depicts the resulting enthalpy changes as a function of molar addition of metal as well as the best fit to a single binding site model. (E) Plot of room-temperature EPR double integrals against Mn^2+ concentration for samples without enzyme (teal dots) and in the presence of 20 μM PaPepA (purple dots). […] (F) Frozen solution EPR spectra of PaPepA in the presence of various ratios of Mn^2+: enzyme, upper box zoomed-in data without the metal in buffer control. For panels (A), (B), and (C), data are mean ± SEM across three replicates. For Figure 3D, experiments were performed in two separate biological replicates, one shown here for illustration, and all data were acquired in Figure S11. […]

[5] = molecular target: T1, PaPepA; details: degassed solutions, 3 mM MnCl2, 2 mM Leu-pNA, sodium bicarbonate 0 to 5 mM
Description: For assays investigating bicarbonate dependence, all buffers and stock solutions were extensively degassed prior to use.[25]

[6] = molecular target: T1, PaPepA; test: biochemical
Description: MnCl2 was present in excess.
concentrations of Leucine as an inhibitor.

T1 sequence (Q02RY8 whole entry): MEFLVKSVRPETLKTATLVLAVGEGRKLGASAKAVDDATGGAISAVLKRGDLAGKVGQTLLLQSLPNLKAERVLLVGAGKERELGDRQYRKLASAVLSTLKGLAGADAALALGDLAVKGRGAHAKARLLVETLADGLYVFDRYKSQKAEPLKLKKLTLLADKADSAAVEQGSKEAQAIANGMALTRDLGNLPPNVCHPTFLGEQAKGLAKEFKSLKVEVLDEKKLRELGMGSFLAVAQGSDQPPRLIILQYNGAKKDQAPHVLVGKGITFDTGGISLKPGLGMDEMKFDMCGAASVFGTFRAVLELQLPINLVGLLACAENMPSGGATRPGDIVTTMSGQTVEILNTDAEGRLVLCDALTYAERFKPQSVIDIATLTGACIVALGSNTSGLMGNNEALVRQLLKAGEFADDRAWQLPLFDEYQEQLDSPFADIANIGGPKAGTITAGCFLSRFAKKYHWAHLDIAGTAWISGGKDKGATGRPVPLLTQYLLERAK

With `[Mg+2]` [Mg^2+] the KACT ([1]; pH 8.0) was 3 mM and 3.0 ± 0.7 mM, the kcat ([1]; pH 8.0) was 0.051 ± 0.002 s^–1 and the kcat/KACT ([1]; pH 8.0) was 0.017 ± 0.004 s^–1mM^–1. For the same molecule, the KACT ([1]; pH 8.0, listed as MgCl2) was about 3 mM, the “^D2Okcat” value [2] was 3.1 ± 0.1 and the “^D2Okcat/KACT” value [2] was 2.3 ± 0.1. The “number of metal atoms binding the protein” value ([3]; ITC stoichiometry per monomer) was 0.68, the Kd ([3]; ITC, first line per metal: N 1, [PepA] 35.80 ± 1.5 (Mn) or 32.60 (Mg) µM, [Metal] 400.0 or 1000 µM) was 1.84 ± 0.182 µM and the Kd ([3]; ITC, one binding site per monomer) was 2.1 ± 0.3 µM. For the same molecule, the Kd ([3]; ITC, one binding site per monomer, 25 °C, pH 7.4) was 2.14 ± 0.326 µM, the Kd ([3]; ITC, second line per metal: N 1, [PepA] 47.00 or 48.00 µM, [Metal] 526.5 ± 22.5 (Mn) or 1470 (Mg) µM) was 2.72 ± 0.47 µM and the N ([3]; ITC, third line per metal: N fitted) was 0.679 ± 0.001. For the same molecule, the Kd ([3]; ITC, third line per metal: N fitted, [PepA] 47.00 or 48.00 µM, [Metal] 400.0 or 1000 µM) was 1.84 ± 0.182 µM.
`[Zn+2]` [Zn^2+] showed a Ki ([4]; Zn^2+ and Mn^2+ both added without preincubation, noncompetitive mixed model) of 12.2 µM, a α ([4]; noncompetitive model of inhibition) of 5.6 and a KACT ([1]; pH 8.0) of 0.02 ± 0.01 mM. The kcat ([1]; pH 8.0) was 0.009 s^–1 and 0.009 ± 0.001 s^–1, the kcat/KACT ([1]; pH 8.0) was 0.5 ± 0.2 s^–1mM^–1 and the KACT ([1]; pH 8.0, as given in text) was 0.02 mM.
In the case of `O=C([O-])O.[Na+]` [bicarbonate, sodium bicarbonate], the “activation by bicarbonate (in words)” value [5] is reported as “not observed activation or increase in activity”.
Work on `CC(C)C[C@H](N)C(=O)O` [leucine] yielded a Ki [6] of 601 µM.

From PMC10666288, “Unveiling the Catalytic Mechanism of a Processive Metalloaminopeptidase” (Biochemistry, 2023)
